Data reported in patent US20050148627A1, “Benzopyran compounds for use in the treatment and prevention of inflammation related conditions” (priority 2003, published 2005).
Values joined by “and” are separate entries in the source; they are usually repeats but may differ in a detail not shown here. Equal entries are not always repeated.

Target: COX-1 (Homo sapiens, UniProt P23219)
Assay: biochemical

Chain of COX-1 (P23219 24-599): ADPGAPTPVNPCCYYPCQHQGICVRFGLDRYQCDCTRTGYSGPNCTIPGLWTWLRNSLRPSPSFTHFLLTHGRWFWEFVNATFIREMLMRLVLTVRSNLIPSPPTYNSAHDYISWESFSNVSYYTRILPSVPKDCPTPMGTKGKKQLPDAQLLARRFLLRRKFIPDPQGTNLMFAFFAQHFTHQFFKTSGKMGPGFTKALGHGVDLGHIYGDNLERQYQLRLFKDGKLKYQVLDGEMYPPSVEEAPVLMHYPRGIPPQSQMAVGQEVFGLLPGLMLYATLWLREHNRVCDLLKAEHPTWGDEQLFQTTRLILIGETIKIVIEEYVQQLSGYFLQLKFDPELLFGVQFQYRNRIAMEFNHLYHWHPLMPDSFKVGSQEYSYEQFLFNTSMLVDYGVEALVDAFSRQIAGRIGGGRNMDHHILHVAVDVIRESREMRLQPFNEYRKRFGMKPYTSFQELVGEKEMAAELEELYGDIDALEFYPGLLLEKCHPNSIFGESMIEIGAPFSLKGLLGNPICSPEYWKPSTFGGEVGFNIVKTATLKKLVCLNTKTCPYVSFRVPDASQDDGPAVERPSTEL

Row | SMILES | IC50
1 | CCCC(C)(C)c1ccc2c(c1)OC(C(F)(F)F)C(C(=O)O)=C2 (stereo not drawn) [Example 108, 7-(1,1-dimethylbutyl)-2-(trifluoromethyl)-2H-chromene-3-carboxylic acid] | > 100 µM and 169 µM
2 | CCC(CC)COc1ccc(Cl)c2c1OC(C(F)(F)F)C(C(=O)O)=C2 (stereo not drawn) [Example 23b, 5-chloro-8-(2-ethylbutoxy)-2-(trifluoromethyl)-2H-chromene-3-carboxylic acid] | 159 µM and > 100 µM
3 | COc1c(Cl)c(Cl)c(C)c2c1OC(C(F)(F)F)C(C(=O)O)=C2 (stereo not drawn) [Example 29, 6,7-dichloro-8-methoxy-5-methyl-2-(trifluoromethyl)-2H-chromene-3-carboxylic acid] | > 100 µM and 217 µM
4 | CCCCOc1c(Cl)c(Cl)c(Cl)c2c1OC(C(F)(F)F)C(C(=O)O)=C2 (stereo not drawn) [Example 28b, 8-butoxy-5,6,7-trichloro-2-(trifluoromethyl)-2H-chromene-3-carboxylic acid] | 41.7 µM
5 | O=C(O)C1=Cc2cc(Cl)c(OCC3CCCC3)cc2OC1C(F)(F)F (stereo not drawn) [Example 2d, 6-chloro-7-(cyclopentylmethoxy)-2-(trifluoromethyl)-2H-chromene-3-carboxylic acid] | 44.3 µM
6 | COc1cc2c(cc1C(C)(C)C)OC(C(F)(F)F)C(C(=O)O)=C2 (stereo not drawn) [Example 112, 7-tert-butyl-6-methoxy-2-(trifluoromethyl)-2H-chromene-3-carboxylic acid] | > 100 µM
7 | COCC(C)(C)c1cc2c(cc1Cl)C=C(C(=O)O)C(C(F)(F)F)O2 (stereo not drawn) [Example 116, 6-chloro-7-(2-methoxy-1,1-dimethylethyl)-2-(trifluoromethyl)-2H-chromene-3-carboxylic acid] | > 100 µM
8 | O=C(O)C1=Cc2cc(Cl)c(O)c(Cl)c2OC1C(F)(F)F (stereo not drawn) [Example 1a, 6,8-dichloro-7-hydroxy-2-(trifluoromethyl)-2H-chromene-3-carboxylic acid] | > 500 µM
9 | CC(C)(C)CCOc1c(Cl)cc2c(c1Cl)OC(C(F)(F)F)C(C(=O)O)=C2 (stereo not drawn) [Example 1d, 6,8-dichloro-7-(3,3-dimethylbutoxy)-2-(trifluoromethyl)-2H-chromene-3-carboxylic acid] | 49.2 µM
10 | Nc1ccc(Oc2cc3c(cc2Cl)C=C(C(=O)O)C(C(F)(F)F)O3)c(F)c1 (stereo not drawn) [Example 2a, 7-(4-amino-2-fluorophenoxy)-6-chloro-2-(trifluoromethyl)-2H-chromene-3-carboxylic acid] | < 0.137 µM and 0.347 µM and 0.112 µM
11 | CCCCOc1c(Cl)cc2c(c1C)OC(C(F)(F)F)C(C(=O)O)=C2 (stereo not drawn) [Example 3f, 7-butoxy-6-chloro-8-methyl-2-(trifluoromethyl)-2H-chromene-3-carboxylic acid] | 7.09 µM and 9.55 µM and 9.09 µM
12 | CC(C)(C)Oc1c(Cl)cc2c(c1Cl)OC(C(F)(F)F)C(C(=O)O)=C2 (stereo not drawn) [Example 1h, 7-tert-butoxy-6,8-dichloro-2-(trifluoromethyl)-2H-chromene-3-carboxylic acid] | < 0.137 µM
13 | O=C(O)C1=Cc2cc(Cl)c(SCc3ccccc3)cc2OC1C(F)(F)F (stereo not drawn) [Example 7e, 7-(benzylthio)-6-chloro-2-(trifluoromethyl)-2H-chromene-3-carboxylic acid] | > 100 µM
14 | O=C(O)C1=Cc2ccc(Oc3ccc([N+](=O)[O-])cc3F)cc2OC1C(F)(F)F (stereo not drawn) [Example 5a, 7-(2-fluoro-4-nitrophenoxy)-2-(trifluoromethyl)-2H-chromene-3-carboxylic acid] | > 100 µM and 264 µM and 199 µM
15 | CCC(CC)COc1cc2c(cc1Cl)C=C(C(=O)O)C(C(F)(F)F)O2 (stereo not drawn) [Example 2c, 6-chloro-7-(2-ethylbutoxy)-2-(trifluoromethyl)-2H-chromene-3-carboxylic acid] | 51.6 µM
16 | Cc1cc(Br)c2c(c1)C=C(C(=O)O)C(C(F)(F)F)N2 (stereo not drawn) [Example 46, 8-Bromo-6-methyl-2-(trifluoromethyl)-1,2-dihydroquinoline-3-carboxylic acid] | > 100 µM
17 | CC(C)(C)c1cc(Cl)c2c(c1)C=C(C(=O)O)C(C(F)(F)F)O2 (stereo not drawn) [Example 35, 6-tert-butyl-8-chloro-2-(trifluoromethyl)-2H-chromene-3-carboxylic acid] | 2.87 µM
18 | CC(C)(C(=O)O)c1cc2c(cc1Cl)C=C(C(=O)O)C(C(F)(F)F)O2 (stereo not drawn) [Example 115, 7-(1-carboxy-1-methylethyl)-6-chloro-2-(trifluoromethyl)-2H-chromene-3-carboxylic acid] | > 100 µM
19 | Cc1c(OCC(C)C)c(Cl)cc2c1OC(C(F)(F)F)C(C(=O)O)=C2 (stereo not drawn) [Example 3e, 6-chloro-7-isobutoxy-8-methyl-2-(trifluoromethyl)-2H-chromene-3-carboxylic acid] | < 0.137 µM
20 | Cc1cc(C)c2c(c1Cl)C=C(C(=O)O)C(C(F)(F)F)O2 (stereo not drawn) [Example 33, 5-chloro-6,8-dimethyl-2-(trifluoromethyl)-2H-chromene-3-carboxylic acid] | 8.28 µM and 6.09 µM and 43.4 µM and 18.5 µM

Second part, the compound after the results:

Row | IC50 | SMILES
21 | < 0.137 µM | CCCCCCOc1cc(Cl)c2c(c1)C=C(C(=O)O)C(C(F)(F)F)O2 (stereo not drawn) [Example 17e, 8-chloro-6-(hexyloxy)-2-(trifluoromethyl)-2H-chromene-3-carboxylic acid]
22 | 9.97 µM and 5.11 µM and 9.72 µM and 5.97 µM and 8.31 µM and 9.5 µM and > 1.2 µM | CCCCc1cc2c(cc1Cl)C=C(C(=O)O)C(C(F)(F)F)O2 (stereo not drawn) [Example 9a, 7-butyl-6-chloro-2-(trifluoromethyl)-2H-chromene-3-carboxylic acid]
23 | > 100 µM | CCc1ccc2c(c1)C=C(C(=O)O)C(C(F)(F)F)O2 (stereo in doubt) [Example 34c, (2R)-6-ethyl-2-(trifluoromethyl)-2H-chromene-3-carboxylic acid]
24 | < 0.137 µM | CC(C)CN(C)c1c(Cl)cc2c(c1Cl)OC(C(F)(F)F)C(C(=O)O)=C2 (stereo not drawn) [Example 38a, 6,8-dichloro-7-[isobutyl(methyl)amino]-2-(trifluoromethyl)-2H-chromene-3-carboxylic acid]
25 | 54.8 µM and 68.2 µM | O=C(O)C1=Cc2cc(OC(F)(F)F)cc(CCc3ccccc3)c2OC1C(F)(F)F (stereo not drawn) [Example 21o, 8-(2-phenylethyl)-6-(trifluoromethoxy)-2-(trifluoromethyl)-2H-chromene-3-carboxylic acid]
26 | > 100 µM | CCN(C)c1cc2c(cc1Cl)C=C(C(=O)O)C(C(F)(F)F)O2 (stereo not drawn) [Example 8f, 6-chloro-7-[ethyl(methyl)amino]-2-(trifluoromethyl)-2H-chromene-3-carboxylic acid]
27 | 19.2 µM and 9.68 µM | O=C(O)C1=Cc2cc(OC(F)(F)F)cc(C#Cc3ccccc3)c2OC1C(F)(F)F (stereo not drawn) [Example 21c, 8-(phenylethynyl)-6-(trifluoromethoxy)-2-(trifluoromethyl)-2H-chromene-3-carboxylic acid]
28 | > 100 µM | CCc1cc2c(cc1Cc1ccccc1)OC(C(F)(F)F)C(C(=O)O)=C2 (stereo not drawn) [Example 42b, 7-benzyl-6-ethyl-2-(trifluoromethyl)-2H-chromene-3-carboxylic acid]
29 | > 100 µM and 455 µM | O=C(O)C1=Cc2cc(O)cc(Cl)c2OC1C(F)(F)F (stereo not drawn) [Example 17b, 8-chloro-6-hydroxy-2-(trifluoromethyl)-2H-chromene-3-carboxylic acid]
30 | 99.9 µM | COc1ccc(Cc2cc3c(cc2Cl)C=C(C(=O)O)C(C(F)(F)F)O3)cc1 (stereo not drawn) [Example 9q, 6-chloro-7-(4-methoxybenzyl)-2-(trifluoromethyl)-2H-chromene-3-carboxylic acid]
31 | 11.8 µM | CCCOc1cc(Cl)c2c(c1)C=C(C(=O)O)C(C(F)(F)F)O2 (stereo not drawn) [Example 17f, 8-chloro-6-propoxy-2-(trifluoromethyl)-2H-chromene-3-carboxylic acid]
32 | 0.471 µM and < 0.132 µM | COc1cc(Cl)c(Cl)c2c1OC(C(F)(F)F)C(C(=O)O)=C2 (stereo not drawn) [Example 23e, 5,6-dichloro-8-methoxy-2-(trifluoromethyl)-2H-chromene-3-carboxylic acid]
33 | 37.4 µM | O=C(O)C1=Cc2ccc(Cc3ccc(F)cc3)cc2OC1C(F)(F)F (stereo not drawn) [Example 9bb, 7-(4-fluorobenzyl)-2-(trifluoromethyl)-2H-chromene-3-carboxylic acid]
34 | > 100 µM | CCCOc1cccc2c1OC(C(F)(F)F)C(C(=O)O)=C2 (stereo not drawn) [Example 25e, 8-propoxy-2-(trifluoromethyl)-2H-chromene-3-carboxylic acid]
35 | 0.182 µM | CC#Cc1cc(OC(F)(F)F)cc2c1OC(C(F)(F)F)C(C(=O)O)=C2 (stereo not drawn) [Example 21d, 8-prop-1-ynyl-6-(trifluoromethoxy)-2-(trifluoromethyl)-2H-chromene-3-carboxylic acid]
36 | 28.7 µM and 25.2 µM and 14.7 µM | Cc1cc2c(cc1Cc1ccccc1)OC(C(F)(F)F)C(C(=O)O)=C2 (stereo not drawn) [Example 42a, 7-benzyl-6-methyl-2-(trifluoromethyl)-2H-chromene-3-carboxylic acid]
37 | 3.58 µM and 0.623 µM | O=C(O)C1=Cc2cc(OCC(F)(F)F)cc(Cl)c2OC1C(F)(F)F (stereo not drawn) [Example 17c, 8-chloro-6-(2,2,2-trifluoroethoxy)-2-(trifluoromethyl)-2H-chromene-3-carboxylic acid]
38 | 5.85 µM and 5.72 µM | Cc1ccc(Cc2cc3c(cc2Cl)C=C(C(=O)O)C(C(F)(F)F)O3)c(C)c1 (stereo not drawn) [Example 9s, 6-chloro-7-(2,4-dimethylbenzyl)-2-(trifluoromethyl)-2H-chromene-3-carboxylic acid]
39 | > 500 µM | CCCOc1ccc(Cl)c2c1OC(C(F)(F)F)C(C(=O)O)=C2 (stereo not drawn) [Example 23a, 5-chloro-8-propoxy-2-(trifluoromethyl)-2H-chromene-3-carboxylic acid]
40 | 5.52 µM | Cc1ccc(Cc2cc3c(cc2Cl)C=C(C(=O)O)C(C(F)(F)F)O3)c(C)c1Cl (stereo not drawn) [Example 9u, 6-chloro-7-(3-chloro-2,4-dimethylbenzyl)-2-(trifluoromethyl)-2H-chromene-3-carboxylic acid]
41 | 9.67 µM and 12.1 µM | O=C(O)C1=Cc2cc(Cl)c(Cc3ccc(Cl)cc3)cc2OC1C(F)(F)F (stereo not drawn) [Example 9o, 6-chloro-7-(4-chlorobenzyl)-2-(trifluoromethyl)-2H-chromene-3-carboxylic]
42 | > 100 µM | COc1cc(Cl)c2c(c1)C=C(C(=O)O)[C@H](C(F)(F)F)O2 (single isomer, unassigned) [Example 17h]
43 | > 100 µM | Cc1cc(C)c2c(c1)C=C(C(=O)O)[C@@H](C(F)(F)F)O2 (single isomer, unassigned) [Example 32b]
44 | 0.603 µM and 2.17 µM | O=C(O)C1=Cc2cc(Cl)c(Cc3ccccc3)cc2OC1C(F)(F)F (stereo not drawn) [Example 9k, 7-benzyl-6-chloro-2-(trifluoromethyl)-2H-chromene-3-carboxylic acid]
45 | < 0.137 µM | Cc1c(Cc2ccccc2)ccc2c1OC(C(F)(F)F)C(C(=O)O)=C2 (stereo not drawn) [Example 14b, 7-benzyl-8-methyl-2-(trifluoromethyl)-2H-chromene-3-carboxylic acid]
